What was measured:
[1] = tested on: F. oxysporum transformants generated using pBHt2-tk (ChGPD-HSVtk); assay type: cell-based, Fusarium oxysporum
[2] = tested on: Aspergillus fumigatus transformants generated using pBHt2-tk (ChGPD-HSVtk); assay type: cell-based
[3] = tested on: Botrytis cineria transformants generated using pBHt2-tk (ChGPD-HSVtk); assay type: cell-based
[4] = tested on: wild-type strain of B. cineria; assay type: cell-based, Botrytis cineria
[5] = tested on: F. oxysporum O-685 transformants; assay type: cell-based, Fusarium oxysporum
[6] = tested on: transformants of N. crassa that express HSVtk; settings: HSVtk-expressing transformants; cited from earlier work
[7] = tested on: transformants of Cryptococcus neoformans that express HSVtk; settings: HSVtk-expressing transformants; cited from earlier work

Row | Structure (SMILES) | sensitivity of transformants [1] | concentration required for significant growth inhibition [2] [µM] | sensitivity of transformants [2] | concentration sufficient to inhibit growth [3] [nM] | sensitivity of transformants [3] | sensitivity of wild-type strain [4] | reduction of the number of transformants relative to that generated in the presence of 0 or 5 μM F2dU [5] [fold] | sensitivity of transformants [6] | sensitivity of transformants [7] | concentration failing to inhibit growth [3] [mM]
1 | O=c1[nH]c(=O)n([C@H]2C[C@H](O)[C@@H](CO)O2)cc1F [F2dU, 5-fluoro-2′-deoxyuridine] | exhibited sensitivity | 50 | exhibited sensitivity | 5 | exhibited sensitivity | exhibited noticeable sensitivity | 2 to 4 | exhibited sensitivity | exhibited sensitivity | 
2 | Nc1nc(O)c2ncn(COC(CO)CO)c2n1 [Ganciclovir] | exhibited sensitivity |  | exhibited sensitivity |  |  |  |  |  |  | > 2
